Three compounds from patent US4526989A, “1,4-Bis (substituted-amino)-5,8-dihydroxy-anthraquinones and leuco bases thereof” (priority 1979, dated 1985) can be followed below.

Read-outs that look alike come from different tables or passages of the source.

Test [1] has as its system melanotic melanoma B16. Description: Melanotic Melanoma B16 test. Format: in vivo, C57BC/6 mice. The protocol: The animals used are C57BC/6 mice, all of the same sex, weighing a minimum of 17 g. and all within a 3-g. weight range. There are normally 10 animals per test group. A one-gram portion of melanotic melanoma B16 tumor is homogenized in 10 ml. of cold balanced salt solution and a 0.5-ml. aliquot of the homogenate is implanted intraperitoneally into each of the test mice. The test compounds are administered intraperitoneally on days one through 9 (relative to tumor inoculation) at various doses. The animals are weighed and survivors are recorded on a regular basis for 60 days. The median survival time and the ratio of survival time for treated (T)/control (C) animals are calculated. […] The criterion for efficacy is T/C×100≥125%.

The subject of test [2] is lymphocytic leukemia P388. Description: Lymphocytic leukemia P388 test (intraperitoneal administration). Format: in vivo, DBA/2 mice. Summed up: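 DBA/2 mice, single sex, 5-6 per group, inoculated i.p. with 10^6 P388 leukemia cells. Compounds given i.p. at various doses on days 1, 5 and 9; survival followed 30 days, reporting median survival time and treated/control (T/C) survival ratio.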

Where [3] appears, read: 0.7 mg./kg. i.p., days 1 through 9.
[4] abbreviates: 1.5 mg./kg. i.p., days 1 through 9.
Setting [5] is: 3 mg./kg. i.p., days 1 through 9.
Where [6] appears, read: 6 mg./kg. i.p., days 1 through 9.
Setting [7] is: 12 mg./kg. i.p., days 1 through 9.
The mark [8] stands for this setting: Mus musculus, ip, 0.7 mg./kg. i.p., days 1 through 9, efficacy ≥125%, read-out: T/C × 100.
Setting [9] is: Mus musculus, ip, 1.5 mg./kg. i.p., days 1 through 9, efficacy ≥125%, read-out: T/C × 100.
[10] abbreviates: Mus musculus, ip, 3 mg./kg. i.p., days 1 through 9, efficacy ≥125%, read-out: T/C × 100.
The mark [11] stands for this setting: Mus musculus, ip, 12 mg./kg. i.p., days 1 through 9, efficacy ≥125%, read-out: T/C × 100.
Setting [12] is: 1.5 mg./kg. i.p., days 1, 5 and 9.
The mark [13] stands for this setting: 3.1 mg./kg. i.p., days 1, 5 and 9.
The mark [14] stands for this setting: 6.2 mg./kg. i.p., days 1, 5 and 9.
Where [15] appears, read: 12.5 mg./kg. i.p., days 1, 5 and 9.
The mark [16] stands for this setting: Mus musculus, P388, ip, 1.5 mg./kg. i.p., days 1, 5 and 9, efficacy ≥125%, read-out: T/C × 100.
Where [17] appears, read: Mus musculus, P388, ip, 3.1 mg./kg. i.p., days 1, 5 and 9, efficacy ≥125%, read-out: T/C × 100.
[18] abbreviates: Mus musculus, P388, ip, 12.5 mg./kg. i.p., days 1, 5 and 9, efficacy ≥125%, read-out: T/C × 100.
The mark [19] stands for this setting: Mus musculus, P388, ip, read-out: T/C × 100.

Regarding `CNCCNC1=C2C(=O)c3c(O)ccc(O)c3C(=O)C2=C(NCCNC)CC1` [Leuco-1,4-bis[2-(methylamino)ethylamino]-5,8-dihydroxyanthraquinone], the “Median Survival Time” value in test [1] (setting [3]) was 27.5 days; in test [1] (setting [4]), 36.0 days; in test [1] (setting [5]), 31.0 days; in test [1] (setting [6]) it was 32.5 days; in test [1] (setting [7]), 28.0 days; in test [2] (setting [12]), 13.0 days. The “Median Survival Time” value in test [2] (setting [13]) was determined as 15.0 days; in test [2] (setting [14]) it was 21.0 days; in test [2] (setting [15]), 19.0 days; in test [2] (25 mg./kg. i.p., days 1, 5 and 9), 19.0 days; in test [2] (50 mg./kg. i.p., days 1, 5 and 9) it was 6.0 days. The response vs control in vivo at 0.7 mg/kg in test [1] (setting [8]) is 172%. Besides, the response vs control in vivo at 1.5 mg/kg in test [1] (setting [9]) is 225%; in test [2] (setting [16]), 118%. The response vs control in vivo at 3 mg/kg in test [1] (setting [10]) came to 194%. Further, the response vs control in vivo at 6 mg/kg in test [1] (Mus musculus, ip, 6 mg./kg. i.p., days 1 through 9, efficacy ≥125%, read-out: T/C × 100) amounted to 203%. Also, in test [1] (setting [11]), the response vs control in vivo at 12 mg/kg came out at 175%. Moreover, the response vs control in vivo at 3.1 mg/kg in test [2] (setting [17]) worked out at 136%. Besides, in test [2] (Mus musculus, P388, ip, 6.2 mg./kg. i.p., days 1, 5 and 9, efficacy ≥125%, read-out: T/C × 100), the response vs control in vivo at 6.2 mg/kg is 191%. Besides, the response vs control in vivo at 12.5 mg/kg in test [2] (setting [18]) amounted to 173%. In addition, the response vs control in vivo at 25 mg/kg in test [2] (Mus musculus, P388, ip, 25 mg./kg. i.p., days 1, 5 and 9, efficacy ≥125%, read-out: T/C × 100) amounted to 173%. Besides, in test [2] (Mus musculus, P388, ip, 50 mg./kg. i.p., days 1, 5 and 9, efficacy ≥125%, read-out: T/C × 100), the response vs control in vivo at 50 mg/kg was 55%.
As to `Cl.Cl.O=C1c2c(O)ccc(O)c2C(=O)c2c(NCCNCCO)ccc(NCCNCCO)c21` [1,4-Bis[2-(2-hydroxyethylamino)ethylamino]-5,8-dihydroxyanthraquinone Dihydrochloride], the “Median Survival Time” value in test [1] (0.3 mg./kg. i.p., days 1 through 9) is 34.0 days; in test [1] (setting [3]), more than 34.0 days; in test [1] (setting [4]), more than 34.0 days; in test [1] (setting [5]) it was more than 28.5 days; in test [1] (setting [6]) it was 15.0 days; in test [1] (setting [7]), 11.0 days. For the same compound, the “Median Survival Time” value in test [2] (0.04 mg./kg. i.p., days 1, 5 and 9) is 20.0 days; in test [2] (0.09 mg./kg. i.p., days 1, 5 and 9), 21.0 days; in test [2] (0.19 mg./kg. i.p., days 1, 5 and 9), 25.0 days; in test [2] (0.39 mg./kg. i.p., days 1, 5 and 9), 27.0 days; in test [2] (0.78 mg./kg. i.p., days 1, 5 and 9) it was more than 29.0 days; in test [2] (setting [12]), more than 29.0 days. The “Median Survival Time” value came to 22.0 days in test [2] (setting [13]), 20.0 days in test [2] (setting [14]) and 13.0 days in test [2] (setting [15]). Besides, the response vs control in vivo at 6 mg/kg in test [1] (Mus musculus, ip, read-out: T/C × 100) was found to be 100%. The response vs control in vivo at 0.3 mg/kg in test [1] (Mus musculus, ip, 0.3 mg./kg. i.p., days 1 through 9, efficacy ≥125%, read-out: T/C × 100) amounted to 227%. The response vs control in vivo at 0.7 mg/kg in test [1] (setting [8]) is more than 227%. The response vs control in vivo at 1.5 mg/kg in test [1] (setting [9]) is more than 227%; in test [2] (setting [16]) it was more than 290%. Also, the response vs control in vivo at 3 mg/kg in test [1] (setting [10]) is more than 190%. The response vs control in vivo at 12 mg/kg in test [1] (setting [11]) came to 73%. In addition, in test [2] (setting [19]), the response vs control in vivo at 0.04 mg/kg was 200%. Also, in test [2] (setting [19]), the response vs control in vivo at 0.19 mg/kg came to 250%. In test [2] (setting [19]), the response vs control in vivo at 6.2 mg/kg amounted to 200%. The response vs control in vivo at 0.09 mg/kg in test [2] (Mus musculus, P388, ip, 0.09 mg./kg. i.p., days 1, 5 and 9, efficacy ≥125%, read-out: T/C × 100) came to 210%. Further, the response vs control in vivo at 0.39 mg/kg in test [2] (Mus musculus, P388, ip, 0.39 mg./kg. i.p., days 1, 5 and 9, efficacy ≥125%, read-out: T/C × 100) worked out at 270%. Besides, the response vs control in vivo at 0.78 mg/kg in test [2] (Mus musculus, P388, ip, 0.78 mg./kg. i.p., days 1, 5 and 9, efficacy ≥125%, read-out: T/C × 100) is more than 290%. The response vs control in vivo at 3.1 mg/kg in test [2] (setting [17]) was determined as 220%. Further, in test [2] (setting [18]), the response vs control in vivo at 12.5 mg/kg was found to be 130%.
Take `NCCCCNC1=C2C(=O)c3c(O)ccc(O)c3C(=O)C2=C(NCCCCN)CC1` [Leuco-1,4-bis(4-aminobutylamino)-5,8-dihydroxyanthraquinone]: the “Median Survival Time” value stood at 16.0 days in test [1] (setting [7]); 18.5 days in test [1] (25 mg./kg. i.p., days 1 through 9); 20.0 days in test [1] (50 mg./kg. i.p., days 1 through 9); 21.0 days in test [1] (100 mg./kg. i.p., days 1 through 9); 14.0 days in test [2] (100 mg./kg. i.p., days 1, 5 and 9); 17.0 days in test [2] (200 mg./kg. i.p., days 1, 5 and 9). In addition, the “Median Survival Time” value was determined as 18.0 days in test [2] (300 mg./kg. i.p., days 1, 5 and 9); 20.0 days in test [2] (400 mg./kg. i.p., days 1, 5 and 9). For the same compound, in test [1] (setting [11]), the response vs control in vivo at 12 mg/kg is 94%. For the same compound, in test [1] (Mus musculus, ip, 25 mg./kg. i.p., days 1 through 9, efficacy ≥125%, read-out: T/C × 100), the response vs control in vivo at 25 mg/kg amounted to 109%. Also, the response vs control in vivo at 50 mg/kg in test [1] (Mus musculus, ip, 50 mg./kg. i.p., days 1 through 9, efficacy ≥125%, read-out: T/C × 100) was 118%. In addition, the response vs control in vivo at 100 mg/kg in test [1] (Mus musculus, ip, 100 mg./kg. i.p., days 1 through 9, efficacy ≥125%, read-out: T/C × 100) came to 124%; in test [2] (Mus musculus, P388, ip, 100 mg./kg. i.p., days 1, 5 and 9, efficacy ≥125%, read-out: T/C × 100), 133%. In test [2] (Mus musculus, P388, ip, 200 mg./kg. i.p., days 1, 5 and 9, efficacy ≥125%, read-out: T/C × 100), the response vs control in vivo at 200 mg/kg was determined as 162%. Besides, in test [2] (Mus musculus, P388, ip, 300 mg./kg. i.p., days 1, 5 and 9, efficacy ≥125%, read-out: T/C × 100), the response vs control in vivo at 300 mg/kg worked out at 171%. Besides, the response vs control in vivo at 400 mg/kg in test [2] (Mus musculus, P388, ip, 400 mg./kg. i.p., days 1, 5 and 9, efficacy ≥125%, read-out: T/C × 100) came out at 190%.
